Measurements published in patent EP1857440A1, “Novel compounds, isomer thereof, or pharmaceutically acceptable salts thereof as vanilloid receptor antagonist; and pharmaceutical compositions containing the same” (Amorepacific Corporation, priority 2006, dated 2007).
pIC50: −log10 of the molar value.

Experiments:
Male ICR mice = test: Analgesic activity test: mouse writhing test induced with phenyl-p-quinone; assay type: in vivo; conditions: ip, 0.5 h, 30 min before phenyl-p-quinone, read-out: Analgesic effect (%Inhibition); for inhibition in vivo at 1 mg/kg: Dose 1 mg/kg intraperitoneally
Protocol: 2. Analgesic activity test: Mouse writhing test by inducing with phenyl-p-quinone
Male ICR mice (mean body weight 25g) were maintained in a controlled lighting environment (12 h on/ 12 h off) for experiment. Animals received an intraperitoneal injection of 0.3ml of the chemical irritant phenyl-p-quinone (dissolved in saline containing 5% ethanol to be a dose of 4.5mg/kg) and 6 mins later, the number of abdominal constrictions was counted in the subsequent 6 mins period. Animals (10 animals/group) received 0.2ml of test compounds solution in vehicle of ethanol/Tween 80/saline (10/10/80) intraperitoneally 30 min before the injection of phenyl-p-quinone. A reduction in the number of writhes responding to the test drug compound relative to the number responding in saline control group was considered to be indicative of an analgesic effect. Analgesic effect was calculated by % inhibition equation (% inhibition=(C-T)/C x 100), wherein C and T represent the number of writhes in control and compound-treated group, respectively (Table 2).

vanilloid receptor = target: T1, vanilloid receptor (Rattus norvegicus, UniProt O35433); test: 45Ca influx test (calcium uptake) in primary cultured neonatal rat DRG neurons, capsaicin-stimulated; assay type: cell-based, SD rats; conditions: capsaicin 0.5 µM; for pIC50: 45Ca 10 µCi/ml, 10 mins at room temperature, read-out: Antagonist Calcium Uptake Test (IC50); for Antagonist Calcium Uptake Test (% @ 10 µM): 10 µM test compound
T1 construct: DRG nerve cells from the primary culture of 2 days were equilibrated by washing 4 times; endogenous in cells; host or cells: primary culture of dorsal root ganglion (DRG) neurons from neonatal SD rats
T1 sequence (O35433 whole entry): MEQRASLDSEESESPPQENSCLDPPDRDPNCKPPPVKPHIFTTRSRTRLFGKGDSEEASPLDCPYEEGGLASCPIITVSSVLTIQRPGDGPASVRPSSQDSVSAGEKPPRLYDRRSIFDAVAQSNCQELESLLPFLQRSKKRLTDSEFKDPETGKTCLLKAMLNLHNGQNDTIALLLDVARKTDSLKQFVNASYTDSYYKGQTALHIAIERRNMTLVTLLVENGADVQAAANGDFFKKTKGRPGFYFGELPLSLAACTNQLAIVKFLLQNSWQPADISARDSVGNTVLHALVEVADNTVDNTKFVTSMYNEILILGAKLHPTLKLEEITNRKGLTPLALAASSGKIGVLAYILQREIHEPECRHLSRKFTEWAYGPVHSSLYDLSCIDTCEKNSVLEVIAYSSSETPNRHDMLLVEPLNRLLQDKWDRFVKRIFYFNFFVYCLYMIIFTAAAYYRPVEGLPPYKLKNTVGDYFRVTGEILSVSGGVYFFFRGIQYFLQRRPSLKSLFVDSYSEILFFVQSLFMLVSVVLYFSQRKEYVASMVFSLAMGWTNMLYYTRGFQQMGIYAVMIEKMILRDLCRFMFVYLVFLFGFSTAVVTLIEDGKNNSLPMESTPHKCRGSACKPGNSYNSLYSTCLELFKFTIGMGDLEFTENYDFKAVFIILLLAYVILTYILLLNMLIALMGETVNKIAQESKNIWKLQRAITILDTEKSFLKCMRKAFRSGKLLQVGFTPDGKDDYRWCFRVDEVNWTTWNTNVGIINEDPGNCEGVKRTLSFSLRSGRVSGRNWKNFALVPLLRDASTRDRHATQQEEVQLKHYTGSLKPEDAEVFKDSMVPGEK
Protocol: 1) Separation of spinal dorsal root ganglia (DRG) in newborn rats and primary culture thereof
Neonatal (2-3 day old or younger than 2-3 day old) SD rats were put in ice for 5 minutes to anesthetize and disinfected with 70% ethanol. DRG of all part of spinal cord were dissected (Wood et al., 1988, J. Neurosci. 8, pp3208-3220) and collected in DME/F12 medium to which 1.2g/l sodium bicarbonate, 50mg/l gentamycin were added. The DRG were incubated sequentially at 37°C for 30 min in 200 U/ml collagenase and 2.5mg/ml trypsin, separately. The gangiia were washed twice with DME/F12 medium supplemented with 10% horse serum, triturated through a fire-polished Pasteur pipette, filtered through Nitex 80 membrane to obtain single cell suspension and the suspension was washed once more. This was subjected to centrifugation, then resuspended in cell culture medium at certain level of cell density. As the cell culture medium, DME/F12 medium supplemented with 10% horse serum was diluted with identical medium conditioned by C6 glioma cells 2 days on a confluent monolayer (1:1), and NGF (Nerve Growth Factor) was added to adjust 200ng/ml as final concentration. After the cells were grown 2 days in medium where cytosine arabinoside (Ara-C, 100 µM) was added to kill dividing nonneuronal cells, medium was changed to one without Ara-C. The resuspended cells were plated at a density of 1500-2000 neurons/well onto Terasaki plates previously coated with 10 µg/ml poly-D-ornithine.
2) ^45 Ca influx experiments
DRG nerve cells from the primary culture of 2 days were equilibrated by washing 4 times with HEPES (10mM, pH 7.4)-buffered Ca ^2+, Mg^2+-free HBSS (H-HBSS). The solution in each well was removed from the individual well. Medium containing the test compound plus capsaicin (final concentration 0.5 µM) and ^45Ca (final concentration 10 µCi/ml) in H-HBSS was added to each well and incubated at room temperature for 10 mins. Terasaki plates were washed five times with H-HBSS and dried at room temperature. To each well, 0.3% SDS (10 µl) was added to elute ^45Ca. After the addition of scintillation cocktail of into each well, the amount of ^45Ca influx into neuron was measured by counting radioactivity. […] [Table 1] Results of Calcium Influx Test

Which results are given for CC(C)(C)c1ccc(OCC(=O)NCc2ccc(NS(C)(=O)=O)c(F)c2)cc1 [Example 2, 2-(4-tert-Butylphenoxy)-N-(3-fluoro-4-methanesulfonylaminobenzyl)acetamide]?
inhibition in vivo at 0.3 mg/kg (Male ICR mice; Dose 0.3 mg/kg intraperitoneally): 51%; pIC50 (vanilloid receptor): 8.07

Which inhibition in vivo at 1 mg/kg (Male ICR mice) does the source give for CC(C)(C)c1ccc(OCC(=O)NCc2ccc(NS(C)(=O)=O)c(Cl)c2)cc1 [Example 3, 2-(4-tert-Butylphenoxy)-N-(3-chloro-4-methanesulfonylaminobenzyl)-acetamide] here?
Its inhibition in vivo at 1 mg/kg is 39%.

What about the pIC50 (vanilloid receptor) of the same compound?
Its pIC50 is 6.74.

Which results are given for C=Cc1cc(CNC(=O)COc2ccc(C(C)(C)C)cc2)cc(F)c1NS(C)(=O)=O [Example 5, 2-(4-tert-Butylphenoxy)-N-(3-fluoro-4-methanesulfonylamino-5-vinylbenzyl)acetamide]?
inhibition in vivo at 1 mg/kg (Male ICR mice): 59%; pIC50 (vanilloid receptor): 7.47

C#Cc1cc(CNC(=O)COc2ccc(C(C)(C)C)cc2)cc(F)c1NS(C)(=O)=O [Example 6, 2-(4-tert-Butylphenoxy)-N-(3-ethynyl-5-fluoro-4-methanesulfonylaminobenzyl)acetamide] was tested. Which inhibition in vivo at 0.1 mg/kg (Male ICR mice; Dose 0.1 mg/kg intraperitoneally) did it give?
The inhibition in vivo at 0.1 mg/kg was 41%.

What about the pIC50 (vanilloid receptor) of the same compound?
The pIC50 was 7.72.

For C[C@@H](NC(=O)COc1ccc(C(C)(C)C)cc1)c1ccc(NS(C)(=O)=O)c(F)c1 [Example 12, (R)-2-(4-tert-Butylphenoxy)-N-[1-(3-fluoro-4-methanesuffonylaminophenyl)ethyl]acetamide], which inhibition in vivo at 1 mg/kg (Male ICR mice) is on record?
Its inhibition in vivo at 1 mg/kg is 27%.

What about the pIC50 (vanilloid receptor) of the same compound?
Its pIC50 is 7.15.

With CC(C)(C)c1ccc(OCC(=NC#N)NCc2ccc(NS(C)(=O)=O)c(F)c2)cc1 [Example 18, 2-(4-tert-Butylphenoxy)-N-(3-fluoro-4-methanesulfonylaminobenzyl)-N'-cyanoacetamidine] as the compound, how does the inhibition in vivo at 1 mg/kg (Male ICR mice) read?
The inhibition in vivo at 1 mg/kg was 33%.

What about the pIC50 (vanilloid receptor) of the same compound?
The pIC50 was 6.92.

Which inhibition in vivo at 10 mg/kg (Male ICR mice; Dose 10 mg/kg intraperitoneally) does the source give for CS(=O)(=O)Nc1ccc(CNC(=O)COc2ccc(C(F)(F)F)cc2)cc1F [Example 24, N-(3-Fluoro-4-methanesulfonylamino-benzyl)-2-(4-trifluoromethylphenoxy)-acetamide] here?
The inhibition in vivo at 10 mg/kg was 28%.

What about the pIC50 (vanilloid receptor) of the same compound?
Its pIC50 is 5.89.

How did the pIC50 (vanilloid receptor) turn out when CC(=O)c1cc(C(F)(F)F)ccc1OCC(=O)NCc1ccc(NS(C)(=O)=O)c(F)c1 [Example 44, 2-(2-Acetyl-4-trifluoromethyl-phenoxy)-N-(3-fluoro-4-methanesulfonylamino-benzyl)-acetamide] was run?
Its pIC50 is < 5.00.

CS(=O)(=O)Nc1ccc(CNC(=O)COc2ccc(Br)cc2)cc1F [Example 45, 2-(4-Bromo-phenoxy)-N-(3-fluoro-4-methanesulfonylamino-benzyl)-acetamide] was tested. Which pIC50 (vanilloid receptor) did it give?
Its pIC50 is 5.43.

CS(=O)(=O)Nc1ccc(CNC(=O)COc2cccc(Br)c2)cc1F [Example 46, 2-(3-Bromo-phenoxy)-N-(3-fluoro-4-methanesulfonylamino-benzyl)-acetamide] was tested. Which pIC50 (vanilloid receptor) did it give?
The pIC50 was 5.77.

With CC(C)(C)c1ccc(OCC(=O)NCc2cc(F)c(NS(C)(=O)=O)c(C#N)c2)cc1 [Example 47, 2-[4-(tert-butyl)phenoxy]-N-(3-cyano-5-fluoro-4-methanesulfonyl Amino-benzyl)acetamide] as the compound, how does the pIC50 (vanilloid receptor) read?
The pIC50 was 6.82.

With CC(C)(C)c1ccc(OC(F)C(=O)NCc2ccc(NS(C)(=O)=O)c(F)c2)cc1 (centres unmarked) [Example 48, 2-(4-tert-Butylphenoxy)-2-fluoro-N-(3-fluoro-4-methanesulfonylaminobenzyl)acetamide] as the compound, how does the pIC50 (vanilloid receptor) read?
The pIC50 was 6.74.

How did the pIC50 (vanilloid receptor) turn out when CS(=O)(=O)Nc1ccc(CNC(=O)COc2ccccc2C(F)(F)F)cc1F [Example 51, 2-(2-trifluoromethyl-phenoxy)-N-(3-fluoro-4-methanesulfonylaminobenzyl)-acetamide] was run?
Its pIC50 is < 5.00.

CC(C)c1ccc(OCC(=O)NCc2ccc(NS(C)(=O)=O)c(F)c2)cc1 [Example 52, N-(3-Fluoro-4-methanesulfonylaminobenzyl)-2-(4-isopropylphenoxy)acetamide] was tested. Which inhibition in vivo at 1 mg/kg (Male ICR mice) did it give?
Its inhibition in vivo at 1 mg/kg is 49%.

What about the pIC50 (vanilloid receptor) of the same compound?
Its pIC50 is 7.16.

With CCC(C)c1ccc(OCC(=O)NCc2ccc(NS(C)(=O)=O)c(F)c2)cc1 (centres unmarked) [Example 53, N-(3-Fluoro-4-methanesulfonylaminobenzyl)-2-(4-sec-butylphenoxy)acetamide] as the compound, how does the inhibition in vivo at 1 mg/kg (Male ICR mice) read?
Its inhibition in vivo at 1 mg/kg is 49%.

And the pIC50 (vanilloid receptor)?
Its pIC50 is 7.13.

With CS(=O)(=O)Nc1ccc(CNC(=O)COc2ccc(F)c(F)c2)cc1F [Example 54, N-(3-Fluoro-4-methanesulfonylaminobenzyl)-2-(3,4-difluorophenoxy)acetamide] as the compound, how does the pIC50 (vanilloid receptor) read?
The pIC50 was < 5.00.

How did the pIC50 (vanilloid receptor) turn out when CC(C)(C)c1ccc(OCC(=O)NCc2ccc(NS(C)(=O)=O)c(F)c2)c(C(C)(C)C)c1 [Example 55, N-(3-Fluoro-4-methanesulfonylaminobenzyl)-2-(2,4-di-tert-butylphenoxy)acetamide] was run?
The pIC50 was 5.25.

With CS(=O)(=O)Nc1ccc(CNC(=O)COCc2ccc(C(F)(F)F)cc2C(F)(F)F)cc1F [Example 56, N-(3-Fluoro-4-methanesulfonylaminobenzyl)-2-(2,4-bis(trifluoromethyl)benzyloxy)acetamide] as the compound, how does the pIC50 (vanilloid receptor) read?
Its pIC50 is 5.29.

With CCC(C)(C)c1ccc(OCC(=O)NCc2ccc(NS(C)(=O)=O)c(F)c2)cc1 [Example 57, N-(3-Fluoro-4-methanesulfonylaminobenzyl)-2-(4-(1,1-dimethylpropyl)phenoxy)acetamide] as the compound, how does the pIC50 (vanilloid receptor) read?
The pIC50 was 6.89.

With CC(C)(C)C(=O)OCc1cc(C(F)(F)F)ccc1OCC(=O)NCc1ccc(NS(C)(=O)=O)c(F)c1 [Example 58, 2,2-Dimethyl-propionic acid 2-[(3-fluoro-4-methanesulfonylaminobenzylcarbamoyl)-methoxy]-5-trifluoromethyl-benzyl ester] as the compound, how does the pIC50 (vanilloid receptor) read?
The pIC50 was 5.52.

With CS(=O)(=O)Nc1ccc(CNC(=O)COc2ccc(Cl)c(F)c2)cc1F [Example 59, N-(3-Fluoro-4-methanesulfonylaminobenzyl)-2-(4-chloro-3-fluorophenoxy)acetamide] as the compound, how does the pIC50 (vanilloid receptor) read?
The pIC50 was < 5.00.

With CS(=O)(=O)Nc1ccc(CNC(=O)COc2ccc(-c3ccccc3Cl)cc2)cc1F [Example 60, 2-(2'-Chloro-biphenyl-4-yloxy)-N-(3-fluoro-4-methanesulfonylaminobenzyl)-acetamide] as the compound, how does the pIC50 (vanilloid receptor) read?
Its pIC50 is < 5.00.

How did the pIC50 (vanilloid receptor) turn out when CS(=O)(=O)Nc1ccc(CNC(=O)COc2cccc(-c3ccccc3Cl)c2)cc1F [Example 61, 2-(2'-Chloro-biphenyl-3-yloxy)-N-(3-fluoro-4-methanesulfonylaminobenzyl)-acetamide] was run?
The pIC50 was 5.35.

With CS(=O)(=O)Nc1ccc(CNC(=O)COc2ccc3c(c2)CCC3)cc1F [Example 62, N-(3-Fluoro-4-methanesulfonylaminobenzyl)-2-(indan-5-yloxy)acetamide] as the compound, how does the “Antagonist Calcium Uptake Test (% @ 10 µM)” value (vanilloid receptor) read?
Its value is 82% @ 10 µM.

For CS(=O)(=O)Nc1ccc(CNC(=O)COc2ccccc2C2CCCCC2)cc1F [Example 63, N-(3-Fluoro-4-methanesulfonylaminobenzyl)-2-(2-cyclohexylphenoxy)acetamide], which “Antagonist Calcium Uptake Test (% @ 10 µM)” value (vanilloid receptor) is on record?
Its value is 52% @ 10 µM.

How did the pIC50 (vanilloid receptor) turn out when CS(=O)(=O)Nc1ccc(CNC(=O)COc2ccc(C3CCCCC3)cc2)cc1F [Example 64, N-(3-fluoro-4-methanesulfonylamino-benzyl)-2-(4-Cyclohexylphenoxy)-acetamide] was run?
The pIC50 was < 5.00.
